The values that follow come from patent publication US10258041B2, “Substituted pyrazolylpyrazole derivative and use of same as herbicide” (KYOYU AGRI CO., LTD., priority 2015, dated 2019).

Common to all, as to assay type: in vivo
The test system of data set [1] is Digitaria ciliaris. Kind of data set: Farming soil treatment test. Conditions: soil surface spray prior to weed growth, 30 days, 30° C. The method, then:
(§1) Evaluation of herbicidal efficacy was carried out by comparing growth inhibition rate (%) with an untreated group, while evaluation of chemical damage was carried out by comparing growth inhibition rate (%) with the state of a complete eradication group, and were evaluated at 11 levels indicated below. • 0 (exponent): 0% to less than 10% (growth inhibition rate) • 1: 10% to less than 20% • 2: 20% to less than 30% • 3: 30% to less than 40% • 4: 40% to less than 50% • 5: 50% to less than 60% • 6: 60% to less than 70% • 7: 70% to less than 80% • 8: 80% to less than 90% • 9: 90% to less than 100% • 10: 100% Field soil was filled into a 1/6000 are pot followed by seeding with Digitaria ciliaris, Chenopodium album and Amraranthus retroflexus and covering with soil. Wettable powders of compounds of formula (I) shown in Table 1 prepared in compliance with the preparation examples were diluted with water to the prescribed amount of chemical and uniformly sprayed onto each soil surface layer using 100 liters of sprayed water per 10 are prior to weed growth following seeding. After treating for 30 days in a glass greenhouse at an average atmospheric temperature of 30° C., the herbicidal efficacy thereof was investigated. Evaluation of herbicidal efficacy was carried out in the same manner as the above-mentioned Test Example 1,

Data set [2] concerns Chenopodium album. As to the kind of experiment: Farming soil treatment test. Conditions: soil surface spray prior to weed growth, 30 days, 30° C. The method, then:
as §1

Data set [3] relates to Amaranthus retroflexus. As to the kind of experiment: Farming soil treatment test. Conditions: soil surface spray prior to weed growth, 30 days, 30° C. The method, then: as §1
Data set [4] concerns Oryza sativa. Kind of data set: Paddy herbicidal activity test, chemical damage to transplanted rice. Conditions: rice transplanted in 2.0 leaf stage, 30 days. The method, then: (§2) Rice paddy soil was filled into a 1/10000 are pot followed by the addition of suitable amounts of water and chemical fertilizer, kneading, seeding with Echinochloa crus-galli, Monochoria vaginalis and Scirpus juncoides and maintaining in an irrigated state at a water depth of 3 cm. Wettable powders of Target Compound (I) shown in Table 1 prepared in compliance with the preparation examples were diluted with a suitable amount of water, rice plants in the 2.0 leaf stage were transplanted during 3.5 leaf stage of Echinochloa crus-galli, and treated by dropping in chemical in the prescribed amount per 10 are using a pipette. After treating for 30 days in a glass greenhouse at an average atmospheric temperature of […], the herbicidal efficacy thereof was investigated. Evaluation of herbicidal efficacy was carried out by comparing growth inhibition rate (%) with an untreated group, while evaluation of chemical damage was carried out by comparing growth inhibition rate (%) with the state of a complete eradication group, and were evaluated at 11 levels indicated below. • 0 (exponent): 0% to less than 10% (growth inhibition rate) • 1: 10% to less than 20% • 2: 20% to less than 30% • 3: 30% to less than 40% • 4: 40% to less than 50% • 5: 50% to less than 60% • 6: 60% to less than 70% • 7: 70% to less than 80% • 8: 80% to less than 90% • 9: 90% to less than 100% • 10: 100%

The test system of data set [5] is Digitaria ciliaris. As to the kind of experiment: Weed foliar treatment test (Test 3). Conditions: foliar spray at 1.0 to 2.0 leaf stage of Digitaria ciliaris, 3 weeks, 25° C. The method, then: (§3) Evaluation of herbicidal efficacy was carried out by comparing growth inhibition rate (%) with an untreated group, while evaluation of chemical damage was carried out by comparing growth inhibition rate (%) with the state of a complete eradication group, and were evaluated at 11 levels indicated below. • 0 (exponent): 0% to less than 10% (growth inhibition rate) • 1: 10% to less than 20% • 2: 20% to less than 30% • 3: 30% to less than 40% • 4: 40% to less than 50% • 5: 50% to less than 60% • 6: 60% to less than 70% • 7: 70% to less than 80% • 8: 80% to less than 90% • 9: 90% to less than 100% • 10: 100% Soil was filled into a 1/6000 are pot followed by seeding with Digitaria ciliaris, Chenopodium album and Amaranthus retroflexus, covering with soil, and cultivating in a glass greenhouse at an average atmospheric temperature of 25° C. Wettable powders of Target Compound (I) shown in Table 1 prepared in compliance with the preparation examples were diluted with water to the prescribed amount of chemical and uniformly sprayed onto the weeds using 150 liters of sprayed water per 10 are when Digitaria ciliaris had grown to the 1.0 to 2.0 leaf stage. After treating for 3 weeks in a glass greenhouse at an average atmospheric temperature of 25° C., the herbicidal efficacy thereof was investigated. Evaluation of herbicidal efficacy was carried out in the same manner as the above-mentioned Test Example 1.

Data set [6] has as its system Chenopodium album. Kind of data set: Weed foliar treatment test (Test 3). Conditions: foliar spray at 1.0 to 2.0 leaf stage of Digitaria ciliaris, 3 weeks, 25° C. The method, then:
as §3

Data set [7] deals with Amaranthus retroflexus. Kind of data set: Weed foliar treatment test (Test 3). Conditions: foliar spray at 1.0 to 2.0 leaf stage of Digitaria ciliaris, 3 weeks, 25° C. The method, then:
as §3

Data set [8] has as its system Monochoria vaginalis. Kind of data set: Paddy herbicidal activity test. Conditions: irrigated pot, treated at 3.5 leaf stage of Echinochloa crus-galli, 30 days. The method, then: as §2
Data set [9] relates to Echinochloa crus-galli. Kind of data set: Paddy herbicidal activity test. Conditions: irrigated pot, treated at 3.5 leaf stage of Echinochloa crus-galli, 30 days. The method, then:
as §2

The subject of data set [10] is Scirpus juncoides. Kind of data set: Paddy herbicidal activity test. Conditions: irrigated pot, treated at 3.5 leaf stage of Echinochloa crus-galli, 30 days. The method, then:
as §2

For data set [11], the system named is Digitaria ciliaris. As to the kind of experiment: Weed foliar treatment test (Test 4, higher leaf stage). Conditions: 10 g a.i./10a; foliar spray at 4.0 to 5.0 leaf stage of Digitaria ciliaris (plant height 10 cm to 15 cm); 20 days, 25° C. The method, then:
(§4) Evaluation of herbicidal efficacy was carried out by comparing growth inhibition rate (%) with an untreated group, while evaluation of chemical damage was carried out by comparing growth inhibition rate (%) with the state of a complete eradication group, and were evaluated at 11 levels indicated below. • 0 (exponent): 0% to less than 10% (growth inhibition rate) • 1: 10% to less than 20% • 2: 20% to less than 30% • 3: 30% to less than 40% • 4: 40% to less than 50% • 5: 50% to less than 60% • 6: 60% to less than 70% • 7: 70% to less than 80% • 8: 80% to less than 90% • 9: 90% to less than 100% • 10: 100% Field soil was filled into a 1/4500 are pot followed by seeding with Digitaria ciliaris and Galinsoga parviflora, covering with soil and cultivating in a glass greenhouse at an average atmospheric temperature of 25° C. Wettable powders of Target Compound (I) shown, in Table 1 prepared in compliance with the preparation examples were diluted with water to the prescribed amount of chemical and uniformly sprayed onto the weeds using 100 liters of sprayed water per 10 are when Digitaria ciliaris had grown to the 4.0 to 5.0 leaf stage (plant height: 10 cm to 15 cm). After treating for 20 days in a glass greenhouse at an average atmospheric temperature of 25° C., the herbicidal efficacy thereof was investigated. Evaluation of herbicidal efficacy was carried out in the same manner as the above-mentioned Test Example 1.

Data set [12] relates to Galinsoga parviflora. The data set is described as above. Conditions: 10 g a.i./10a; foliar spray at 4.0 to 5.0 leaf stage of Digitaria ciliaris; 20 days, 25° C. The method, then:
as §4

With `N#Cc1cnn(-c2nn3c(c2Cl)CCCC3)c1NC(=O)CCCl` [Control Agent 1.36], the “herbicidal efficacy (growth inhibition rate level), Digitaria ciliaris” value was 3 (3: 30% to less than 40%) in [1] (5 g a.i./10a); 4 (4: 40% to less than 50%) in [1] (10 g a.i./10a); 2 (2: 20% to less than 30%) in data set [5] (5 g a.i./10a); 3 (3: 30% to less than 40%) in [5] (10 g a.i./10a); 1 (1: 10% to less than 20%) in data set [11]. The “herbicidal efficacy (growth inhibition rate level), Chenopodium album” value in data set [2] (5 g a.i./10a), in data set [2] (10 g a.i./10a), in data set [6] (5 g a.i./10a) and in data set [6] (10 g a.i./10a) was 4 (4: 40% to less than 50%) each time. Besides, the “herbicidal efficacy (growth inhibition rate level), Amaranthus retroflexus” value in [3] (5 g a.i./10a) was 4 (4: 40% to less than 50%); in data set [3] (10 g a.i./10a), 5 (5: 50% to less than 60%); in [7] (5 g a.i./10a), 5 (5: 50% to less than 60%); in data set [7] (10 g a.i./10a), 6 (6: 60% to less than 70%). The “chemical damage (growth inhibition rate level), Oryza sativa” value in [4] (1 g a.i./10a) is 2 (2: 20% to less than 30%); in data set [4] (5 g a.i./10a), 3 (3: 30% to less than 40%). The “herbicidal efficacy (growth inhibition rate level), Monochoria vaginalis” value in data set [8] (1 g a.i./10a) was 3 (3: 30% to less than 40%); in data set [8] (5 g a.i./10a) it was 4 (4: 40% to less than 50%). Further, the “herbicidal efficacy (growth inhibition rate level), Echinochloa crus-galli” value in data set [9] (1 g a.i./10a) is reported as 2 (2: 20% to less than 30%); in data set [9] (5 g a.i./10a) it was 4 (4: 40% to less than 50%). Further, the “herbicidal efficacy (growth inhibition rate level), Scirpus juncoides” value is recorded as 1 (1: 10% to less than 20%) in [10] (1 g a.i./10a) and 3 (3: 30% to less than 40%) in data set [10] (5 g a.i./10a). Also, in data set [12], the “herbicidal efficacy (growth inhibition rate level), Galinsoga parviflora” value is reported as 5 (5: 50% to less than 60%).
